# Data published in ChEMBL document CHEMBL3272185, “Synthesis and enzymic activity of some novel xanthine oxidase inhibitors. 3-Substituted 5,7-dihydroxypyrazolo(1,5-alpha)pyrimidines” (J Med Chem, 1976).
# Experiments:
# [1] = molecular target: T1, Xanthine dehydrogenase/oxidase (Bos taurus, UniProt P80457); test: Inhibition of bovine milk xanthine oxidase using xanthine as substrate at 10 times I50 preincubated for 20 mins at 25 degC measured after 10 fold dilution relative to control; settings: cattle
# [2] = molecular target: T1, Xanthine dehydrogenase/oxidase; test: Activity at bovine milk xanthine oxidase assessed as reduction of cytochrome c and phenazine methosulfate; settings: cattle
# [3] = Dissociation constant, pKa of the compound
# [4] = molecular target: T1, Xanthine dehydrogenase/oxidase; test: Inhibition of bovine milk xanthine oxidase using xanthine as substrate; settings: read-out: I50
# [5] = molecular target: T1, Xanthine dehydrogenase/oxidase; test: Non-competitive inhibition of bovine milk xanthine oxidase using hypoxanthine as substrate by Lineweaver-Burk plot analysis
# [6] = molecular target: T1, Xanthine dehydrogenase/oxidase; test: Non-competitive inhibition of bovine milk xanthine oxidase using xanthine as substrate by Lineweaver-Burk plot analysis
# [7] = molecular target: T1, Xanthine dehydrogenase/oxidase; test: Inhibition of bovine milk xanthine oxidase using xanthine as substrate at 10 times I50 preincubated for 1 hr at 4 degC measured after 10 fold dilution relative to control; settings: cattle
# [8] = molecular target: T1, Xanthine dehydrogenase/oxidase; test: Inhibition of bovine milk xanthine oxidase using xanthine as substrate assessed as increase of I50 at pH 6.6 to 7.6; settings: cattle
# [9] = molecular target: T1, Xanthine dehydrogenase/oxidase; test: Activity at bovine milk xanthine oxidase assessed as reduction of 2,6-dichlorophenol-indophenol; settings: cattle
# [10] = molecular target: T1, Xanthine dehydrogenase/oxidase; test: Inhibition of bovine milk xanthine oxidase using xanthine as substrate assessed as increase of I50 at pH 7.6 to 7.9; settings: cattle
# [11] = molecular target: T1, Xanthine dehydrogenase/oxidase; test: Mixed-type inhibition of bovine milk xanthine oxidase using xanthine as substrate by Lineweaver-Burk plot analysis
# [12] = molecular target: T1, Xanthine dehydrogenase/oxidase; test: Mixed-type inhibition of bovine milk xanthine oxidase using hypoxanthine as substrate by Lineweaver-Burk plot analysis
# [13] = molecular target: T1, Xanthine dehydrogenase/oxidase; test: Inhibition of bovine milk xanthine oxidase using xanthine as substrate assessed as increase of I50 at pH 6.6 to 8.2; settings: cattle
# [14] = molecular target: T1, Xanthine dehydrogenase/oxidase; test: Inhibition of bovine milk xanthine oxidase using xanthine as substrate assessed as increase of I50 at pH 8.2 to 8.8; settings: cattle
# [15] = molecular target: T1, Xanthine dehydrogenase/oxidase; test: Inhibition of bovine milk xanthine oxidase using xanthine as substrate assessed as increase of I50 at pH 6.6 to 7.5; settings: cattle
# T1 sequence (P80457 whole entry): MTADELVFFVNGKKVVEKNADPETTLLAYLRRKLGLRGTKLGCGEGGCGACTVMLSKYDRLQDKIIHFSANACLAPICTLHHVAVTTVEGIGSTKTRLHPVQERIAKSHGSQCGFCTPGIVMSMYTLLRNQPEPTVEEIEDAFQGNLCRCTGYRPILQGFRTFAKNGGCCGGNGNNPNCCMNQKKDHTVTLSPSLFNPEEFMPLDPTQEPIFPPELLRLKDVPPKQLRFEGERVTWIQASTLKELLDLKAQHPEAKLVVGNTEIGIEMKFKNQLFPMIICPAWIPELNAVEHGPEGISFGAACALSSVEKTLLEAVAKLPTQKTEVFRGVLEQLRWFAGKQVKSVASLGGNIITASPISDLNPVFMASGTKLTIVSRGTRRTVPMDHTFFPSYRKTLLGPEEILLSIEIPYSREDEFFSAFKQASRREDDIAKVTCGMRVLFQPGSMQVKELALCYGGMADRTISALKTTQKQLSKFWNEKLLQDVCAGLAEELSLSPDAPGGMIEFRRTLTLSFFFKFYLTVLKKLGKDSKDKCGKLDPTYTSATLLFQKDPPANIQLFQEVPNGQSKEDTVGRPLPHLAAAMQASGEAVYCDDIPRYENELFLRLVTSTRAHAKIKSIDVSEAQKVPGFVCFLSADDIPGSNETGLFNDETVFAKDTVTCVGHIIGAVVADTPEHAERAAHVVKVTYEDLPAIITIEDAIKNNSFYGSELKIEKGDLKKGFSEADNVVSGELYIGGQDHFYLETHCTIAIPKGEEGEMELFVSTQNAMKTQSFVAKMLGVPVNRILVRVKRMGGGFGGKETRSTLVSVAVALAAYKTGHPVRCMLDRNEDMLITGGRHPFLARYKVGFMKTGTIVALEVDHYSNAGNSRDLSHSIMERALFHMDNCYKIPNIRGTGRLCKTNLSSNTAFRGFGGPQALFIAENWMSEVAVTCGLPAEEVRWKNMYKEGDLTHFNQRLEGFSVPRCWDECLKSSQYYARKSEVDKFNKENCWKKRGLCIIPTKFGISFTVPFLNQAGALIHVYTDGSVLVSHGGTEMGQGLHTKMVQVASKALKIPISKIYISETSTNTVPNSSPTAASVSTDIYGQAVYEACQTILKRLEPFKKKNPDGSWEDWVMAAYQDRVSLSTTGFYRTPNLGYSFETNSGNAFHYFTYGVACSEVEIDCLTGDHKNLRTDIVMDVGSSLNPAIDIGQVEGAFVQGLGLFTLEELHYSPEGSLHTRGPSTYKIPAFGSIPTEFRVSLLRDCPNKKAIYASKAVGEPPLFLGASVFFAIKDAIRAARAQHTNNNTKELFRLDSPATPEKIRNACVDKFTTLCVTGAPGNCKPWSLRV
Structure (SMILES),inhibition (INH) [1] [%],Activity [2],pKa [3],IC50 [4] [nM],Ki [5] [nM],Ki [6] [nM],inhibition (INH) [7] [%],inhibition (INH) [8],Activity [9],inhibition (INH) [10],Ki [11] [nM],Ki [12] [nM],inhibition (INH) [13],inhibition (INH) [14],inhibition (INH) [15]
Oc1cc(O)n2nccc2n1,49,Not Active,3.7,5000,4200,5400,47,Active,Not Active,Active,,,,,
O=[N+]([O-])c1cnn2c(O)cc(O)nc12,53,Not Active,,15000,,,51,,Not Active,,37000,31000,,,
Oc1cc(O)n2ncc(Br)c2n1,52,Not Active,,1200,1200,1500,50,,Not Active,,,,,,
Oc1cc(O)n2ncc(Cl)c2n1,44,Not Active,,1400,1800,2000,45,,Not Active,,,,,,
Oc1cc(O)n2ncc(-c3ccccc3)c2n1,49,Not Active,3.8,38,60,53,47,,Not Active,,,,Active,Active,
Oc1cc(O)n2ncc(-c3cccnc3)c2n1,53,Not Active,,43,31,26,50,,Not Active,,,,,,
Oc1cc(O)n2ncc(-c3ccc(Br)cc3)c2n1,53,Not Active,3.8,33,,,52,,Not Active,,26,23,Active,Active,
Oc1cc(O)n2ncc(-c3ccc(Cl)cc3)c2n1,50,Not Active,,43,,,53,,Not Active,,23,19,,,
CC(=O)Nc1ccc(-c2cnn3c(O)cc(O)nc23)cc1,48,Not Active,,89,,,47,,Not Active,,85,77,,,
Cc1ccc(-c2cnn3c(O)cc(O)nc23)cc1,52,Not Active,,96,,,55,,Not Active,,17,24,,,
Cc1cccc(-c2cnn3c(O)cc(O)nc23)c1,48,Not Active,,25,,,50,,Not Active,,20,19,,,
Oc1cc(O)n2ncc(-c3ccc4c(c3)OCO4)c2n1,46,Not Active,,29,,,49,,Not Active,,23,18,,,
Oc1cc(O)n2ncc(-c3cccc4ccccc34)c2n1,45,Not Active,,25,16,13,46,,Not Active,,,,,,
Oc1ncnc2[nH]ncc12 [ALLOPURINOL],100,Active,9,,,,100,,Active,,,,,,Active
O=c1[nH]cnc2nc[nH]c12 [HYPOXANTHINE],,,8.7,,,,,,,,,,,,
O=c1[nH]c(=O)c2[nH]cnc2[nH]1 [XANTHINE],,Active,7.6,,,,,,Active,,,,,,
